Test results from publication PMC8211267, “Potent PDE4 inhibitor activates AMPK and Sirt1 to induce mitochondrial biogenesis” (PLoS ONE, 2021).
pIC50: −log10 of the molar value.

Target: PDE4D (Homo sapiens, UniProt Q08499)
Test: recombinant PDE4 activity assay, [3H]cAMP hydrolysis, dose-response
Format: biochemical

Chain of PDE4D (Q08499 whole entry): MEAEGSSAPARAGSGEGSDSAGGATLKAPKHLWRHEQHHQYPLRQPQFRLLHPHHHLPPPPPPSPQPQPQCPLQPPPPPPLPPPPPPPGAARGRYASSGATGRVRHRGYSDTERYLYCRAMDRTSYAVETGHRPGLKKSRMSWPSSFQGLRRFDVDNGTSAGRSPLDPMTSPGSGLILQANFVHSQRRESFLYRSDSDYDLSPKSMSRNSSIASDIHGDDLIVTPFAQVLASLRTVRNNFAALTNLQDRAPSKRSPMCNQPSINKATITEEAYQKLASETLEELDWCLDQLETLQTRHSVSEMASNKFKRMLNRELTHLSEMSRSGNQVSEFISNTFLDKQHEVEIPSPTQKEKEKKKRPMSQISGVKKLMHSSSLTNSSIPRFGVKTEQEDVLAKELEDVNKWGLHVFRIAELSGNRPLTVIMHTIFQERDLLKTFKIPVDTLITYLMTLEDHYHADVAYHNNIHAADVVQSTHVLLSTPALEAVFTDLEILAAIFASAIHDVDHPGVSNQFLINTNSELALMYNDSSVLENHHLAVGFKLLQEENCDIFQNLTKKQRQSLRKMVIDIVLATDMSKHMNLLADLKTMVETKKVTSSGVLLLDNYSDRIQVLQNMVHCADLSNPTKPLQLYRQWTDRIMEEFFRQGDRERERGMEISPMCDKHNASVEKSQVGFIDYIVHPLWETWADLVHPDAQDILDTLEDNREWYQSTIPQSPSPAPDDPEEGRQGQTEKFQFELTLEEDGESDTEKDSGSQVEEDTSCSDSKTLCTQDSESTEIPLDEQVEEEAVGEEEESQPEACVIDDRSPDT

In the case of `COc1ccc(C(=O)Nc2ccccc2C)cc1OC` [CBU91, 3,4-dimethoxy-N-(o-tolyl)benzamide], the pIC50 was about 6.35.
